A short description of series [1]: diarrhea activity, fasted rats, samples given by gastric tube, occurrence of diarrhea observed in the following 24 hours. Also noted: species or system Sprague-Dawly rat. The note with it: rat, in vivo, po, observed 24 hours, figures in parenthesis indicate confidence limit, read-out: ED50 diarrhea activity. How it is done: Each of five male Sprague-Dawly rats, 12 weeks old, in one group was fasted for 24 hours.

Series [2] relates to male Sprague-Dawly rats. Nature of the series: antiulcer activity, pylorus-ligated fasted rats, samples given by gastric tube, stomach inspected for ulcers 21 hours later. It counts as in vivo, Sprague-Dawly rat. Conditions: for ED50: Rattus norvegicus, po, pylorus-ligated rats, 21 hours, figures in parenthesis indicate confidence limit; for b)/a) (ED50 diarrhea / ED50 antiulcer): ratio of diarrhea ED50 to antiulcer ED50, p.o., rats. How it is done: Each of ten male Sprague-Dawly rate, 12 weeks old, in one group was isolated in a cage with a large mesh wire net at the bottom during experimental period and prevented from coprophagia. During this period the animals were completely fasted for 48 hours and water was provided only for 32 hours from the beginning. The animal was anesthetized with ether, the pylorus was ligated through a short midline incision. The samples were administered with a gastric tube immediately after the ligation. The animals were sacrificed 21 hours later with chloroform and their abdomens were widely opened to take out the stomach. The stomach was opened for inspection of ulcers.

For series [3] the following is noted: Prostaglandins, 5, (5) 455-463 (1974); cited from earlier work.
The conditions of series [4]: in vivo; cited from earlier work.

Each structure is given as a SMILES string.

In general, ED50 refers to the dose at which the effect has come halfway, by size or by number of responders. With `CCCCC[C@@](C)(O)/C=C/[C@H]1[C@H](O)CC(=O)[C@@H]1C/C=C\CC(C)CC(=O)OC` (stereo partly drawn) [Compound C, 11α, 15(R)-dihydroxy-3,15-dimethyl-9-oxo-5(cis), 13(trans)-prostadienoic acid methyl ester], the TD50 at 24 h in series [1] was found to be 1.2 mg/kg. In series [2], the ED50 was determined as 0.2 mg/kg and the “b)/a) (ED50 diarrhea / ED50 antiulcer)” value is 6.0.
The corresponding values for `CCCCC[C@](C)(O)/C=C/[C@H]1[C@H](O)CC(=O)[C@@H]1C/C=C\CCCC(=O)OC` [B, 11α, 15(S)-dihydroxy-15-methyl-9-oxo-5(cis),13(trans)-prostadienoic acid methyl ester] are 0.047 mg/kg, 0.06 mg/kg and 0.8.
Turning to `CCCCC[C@@](C)(O)/C=C/[C@H]1[C@H](O)CC(=O)[C@@H]1C/C=C\CCCC(=O)OC` [A, 11α, 15(R)-dihydroxy-15-methyl-9-oxo-5(cis),13(trans)-prostadienoic acid methyl ester], in series [3], the “anti-ulcer activity, in words” value is recorded as “strong anti-ulcer activity”. Moreover, the TD50 at 24 h in series [1] came out at 0.12 mg/kg. Further, the “diarrhea as a side effect, in words” value in series [4] is given as “very severe diarrhea”. Moreover, in series [2], the ED50 was determined as 0.098 mg/kg and the “b)/a) (ED50 diarrhea / ED50 antiulcer)” value is reported as 1.2.

These data come from patent US4058665A, “Novel 3,15-dilower alkyl PGE2 derivatives” (Yamanouchi Pharmaceutical Co., Ltd., priority 1975, dated 1977).
